Where a name gives a salt, the structure may show the parent alone.
Legend:
PDE5 [1] = target: T1, PDE5 (Homo sapiens, UniProt O76074); assay: cGMP PDE inhibition, 3H-cGMP hydrolysis: PDE5; type: biochemical; set-up: partially purified cGMP-specific PDE isolated from HT-29 cells; endogenous in cells; host or cells: HT-29
Protocol: (Thompson, W. J., Teraski, W. L., Epstein, P. M., Strada, S. J., Advances in Cyclic Nucleotide Research, 10:69-92, 1979, which is incorporated herein by reference). […] The mixture is incubated at 30° C. for 10 minutes with isolated PDE2 and/or PDE5. Reactions are terminated, for example, by boiling the reaction mixture for 75 seconds. After cooling on ice, 100 μl of 0.5 mg/mL snake venom (O. Hannah venom available from Sigma) is added and incubated for 10 minutes at 30° C. This reaction is then terminated by the addition of an alcohol, e.g. 1 mL of 100% methanol. Assay samples are applied to 1 mL Dowex 1-X8 column; and washed with 1 mL of 100% methanol. The amount of radioactivity in the breakthrough and the wash from the column is combined and measured with a scintillation counter. The degree of phosphodiesterase inhibition is determined by calculating the amount of radioactivity in drug-treated reactions and comparing against a control sample (a reaction mixture lacking the tested compound but with drug solvent).
Compounds of this invention are also PDE2 and PDE5 inhibitors as taught in part U.S. patent application Ser. No. 09/046,739 filed Mar. 24, 1998. […] The amount of radioactivity in the breakthrough and the wash from the columns in then measured with a scintillation counter. […]

PDE1 = assay: PDE inhibition, similar protocols: PDE1; type: biochemical
28-day study in rats = type: in vivo
Protocol: A 28-day study in rats was also carried out at 0, 50, 500 and 2000 mg/kg/day.

[2] = target: T2, GST-cGB-PDE5 fusion protein (Homo sapiens, UniProt O76074); assay: cGMP binding assay with GST-cGB-PDE5 fusion protein; conditions: 3H-cGMP 2 μM, 22° C., 1 hour
T2 construct: made in house; host or cells: E. coli BL21 (DE3)
Text: RT-PCR method is used to obtain the cGB domain of PDE5 with forward and reverse primers designed from bovine PDE5A cDNA sequence (McAllister-Lucas L. M et al, J. Biol. Chem. 268, 22863-22873, 1993) and the selection among PDE 1-10 families. 5′-3′, Inc. kits for total RNA followed by oligo (dT) column purification of mRNA are used with HT-29 cells. […] It is then cloned into pGEX-5X-3 glutathione-S-transferase (GST) fusion vector (Pharmacia Biotech )with tac promoter, and EcoRI and XhoI cut sites. The fusion vector is then transfected into E. Coli BL21 (DE3) bacteria (Invitrogen). The transfected BL21 bacteria is grown to log phase, and then IPTG is added as an inducer. The induction is carried at 20° C. for 24 hrs. The bacteria are harvested and lysed. The soluble cell lysate is incubated with GSH conjugated Sepharose 4B (GSH-Sepharose 4B). The GST-cGB-PDE5 fusion protein can bind to the GSH-Sepharose beads, and the other proteins are washed off from beads with excessive cold PBS.
Then, the mixture is transferred to Brandel MB-24 cell harvester with GF/B as the filter membrane followed by 2 washes with 10 mL of cold 5 mM potassium buffer(pH 6.8). The membranes are then cut out and transferred to scintillation vials followed by the addition of 1 mL of H2O and 6 mL of Ready Safe™ liquid scintillation cocktail to each vial. The vials are counted on a Beckman LS 6500 scintillation counter.
The quenching by filter membrane or other debris are also calibrated.

[3] = system: TNF-α secreted by TPA-induced U937 cells; assay: TNF-α immunoassay on culture media of TPA-treated U937 cells; type: cell-based
Protocol: One function of macrophages is to modulate the activity of other inflammatory cells through various cytokine molecules.
TNF-αlevels in the cell culture media were determined by using the TNF-α Immunoassay from R&D Systems (Cat. # DTA50) according to the manufacturer's protocol.

[4] = acute toxicity study in rats; conditions: rat, in vivo; for LD50: rats
[5] = 91-day long-term safety assessment study in rats; type: in vivo
Text: These changes were not associated with any gross clinical abnormality.

PDE5 [6] = target: T1, PDE5; assay: competitive (with cGMP) binding to PDE5
[7] = seven-day dose-range finding study in rats; type: in vivo; conditions: 7 days
[8] = acute and seven-dose toxicity in dogs (capsules); conditions: dog, in vivo
Protocol: Therefore, these dogs were subsequently administered seven consecutive doses of 1000 mg/kg/day.

[9] = 28 days, 50, 500 and 2000 mg/kg/day

In the case of `CC1=C(CC(=O)NCc2ccccc2)c2cc(F)ccc2/C1=C\c1ccncc1` [Example 38, (Z)-5-fluoro-2-methyl-(4-pyridylidene)-3-(N-benzyl)indenylacetamide hydrochloride], the IC50 (PDE5 [1]) is reported as 4 µM, the IC50 (PDE1) is reported as 3 µM and the “macroscopic tissue changes at necropsy” value (28-day study in rats; 28 days) is reported as “No macroscopic tissue changes”. The “histopathological evaluation of tissues” value (28-day study in rats; 28 days, 500 mg/kg/day) was “one female at 500 mg/kg/day had increased mitotic figures in the thyroid gland”, the liver weights (28-day study in rats; 28 days, 2000 mg/kg/day) was “statistically significant increase in liver weights” and the thyroid weights (28-day study in rats; 28 days, 2000 mg/kg/day) was “statistically significant increases in thyroid weights”. The “body weight changes, ophthalmoscopic examinations, hematological and blood chemistry values, urinalysis” value (28-day study in rats; [9]) was “unremarkable”, the clinical observations (28-day study in rats; [9]) was “no abnormal clinical observations” and the “liver and thyroid weight increases at the lower doses” value (28-day study in rats; 28 days, 50 and 500 mg/kg/day) was “not statistically significant”. The “histopathological evaluation of tissues” value (28-day study in rats; 28 days, small number of animals at 2000 mg/kg/day) was “traces of follicular cell hypertrophy, increased numbers of mitotic figures (suggestive of possible cell proliferation) in the thyroid gland and mild centrilobular hypertrophy in the liver”, the “competition with cGMP in binding to the cGMP binding sites of GST-cGB-PDE5” value [2] was “does not bind to the cGMP-binding site of PDE5” and the “level of TNF-α secreted into cell culture media” value [3] was “significantly reduced”. For the same compound, the “acute toxicity on a single-dose basis” value [4] was “not acutely toxic”, the body weight gain ([4]; ip, 1000 mg/kg) was “reduced body weight gain” and the necropsy finding ([4]; ip, 1000 mg/kg) was “mesenteric adhesions seen in some animals”. The LD50 ([4]; ip, 1000 mg/kg, intraperitoneal, read-out: intraperitoneal LD50) was > 1000 mg/kg, the body weight gains ([4]; po, 2000 mg/kg) was “slightly reduced” and the LD50 ([4]; oral, read-out: oral LD50) was > 2000 mg/kg. The “clinical biochemistry and hematology” value ([5]; 91 days) was “no changes in clinical biochemistry and hematology were evident”, the “microscopic finding, follicular cells” value ([5]; 91 days, 500 mg/kg/day) was “follicular cell hypertrophy” and the “microscopic finding, kidneys” value ([5]; 91 days, 200 and 500 mg/kg/day) was “increase in accumulation of hyalin droplets in the kidneys”. The “microscopic finding, liver” value ([5]; 91 days, 200 and 500 mg/kg/day) was “slight hepatocellular hypertrophy”, the “liver and thyroid/parathyroid weights” value ([5]; 91 days, males and females at 200 and 500 mg/kg/day) was “dose-related trend to increased liver and thyroid/parathyroid weights” and the toxicological effects overall ([5]; oral, 91 consecutive days, 50, 200 and 500 mg/kg/day) was “did not produce any major toxicological effects”. The “competitive (with cGMP) binding to PDE 5” value (PDE5 [6]) was “does competitively (with cGMP) bind to PDE 5”, the “observable signs of toxicity” value ([7]; 50 mg/kg/day) was “no observable signs of toxicity” and the treatment-related effects ([7]; 500 mg/kg/day) was “limited to an increase in absolute and relative liver weights in female rats”. For the same compound, the treatment-related effects ([7]; 2000 mg/kg/day) was “labored breathing and/or abnormal respiratory sounds, decreased weights gains and food consumption in male rats, and increased liver weights in female rats”, the “hematological, blood chemistry and microscopic pathology changes” value ([7]; any dose level (50, 500, 2000 mg/kg/day)) was “No hematological or blood chemistry changes nor any microscopic a pathology changes” and the LD50 ([8]; both sexes, 1000 mg/kg, dogs, oral) was > 1000 mg/kg. The signs of toxicity ([8]; 1000 mg/kg) was “no signs of toxicity” and the “signs of drug-related effects” value ([8]; 1000 mg/kg/day) was “At no time in either dosing phase were any obvious signs of drug-related effects observed”.

From patent US6465494B1, “Methods for treatment of cystic fibrosis” (Cell Pathways, Inc., priority 2001, dated 2002)
